Laboratory results from ChEMBL document CHEMBL1131068, “Synthesis and pharmacological evaluation of N,N'-diarylguanidines as potent sodium channel blockers and anticonvulsant agents” (J Med Chem, 1998).

Experiments:
Mus musculus = test: The in vivo inhibitory activity of compound was measured as effectiveness in preventing seizures induced by loud -high frequency sounds in the DBA/2 mouse after 25 mg/kg ip administration.; type: functional; conditions: route intraperitoneal
Glutamate NMDA receptor = test: Displacement of [3H]MK-801 from rat brain membrane N-methyl-D-aspartate glutamate receptor
[1] = biological target: Sodium channel protein type 2 subunit alpha (Rattus norvegicus, UniProt P04775); test: Sodium channel block, determined by % block of [14C]guanidinium flux in CHO line expressing rat type IIA sodium channels derived from rat brain
Sodium channel protein type 2 subunit alpha, sequence (P04775 whole entry): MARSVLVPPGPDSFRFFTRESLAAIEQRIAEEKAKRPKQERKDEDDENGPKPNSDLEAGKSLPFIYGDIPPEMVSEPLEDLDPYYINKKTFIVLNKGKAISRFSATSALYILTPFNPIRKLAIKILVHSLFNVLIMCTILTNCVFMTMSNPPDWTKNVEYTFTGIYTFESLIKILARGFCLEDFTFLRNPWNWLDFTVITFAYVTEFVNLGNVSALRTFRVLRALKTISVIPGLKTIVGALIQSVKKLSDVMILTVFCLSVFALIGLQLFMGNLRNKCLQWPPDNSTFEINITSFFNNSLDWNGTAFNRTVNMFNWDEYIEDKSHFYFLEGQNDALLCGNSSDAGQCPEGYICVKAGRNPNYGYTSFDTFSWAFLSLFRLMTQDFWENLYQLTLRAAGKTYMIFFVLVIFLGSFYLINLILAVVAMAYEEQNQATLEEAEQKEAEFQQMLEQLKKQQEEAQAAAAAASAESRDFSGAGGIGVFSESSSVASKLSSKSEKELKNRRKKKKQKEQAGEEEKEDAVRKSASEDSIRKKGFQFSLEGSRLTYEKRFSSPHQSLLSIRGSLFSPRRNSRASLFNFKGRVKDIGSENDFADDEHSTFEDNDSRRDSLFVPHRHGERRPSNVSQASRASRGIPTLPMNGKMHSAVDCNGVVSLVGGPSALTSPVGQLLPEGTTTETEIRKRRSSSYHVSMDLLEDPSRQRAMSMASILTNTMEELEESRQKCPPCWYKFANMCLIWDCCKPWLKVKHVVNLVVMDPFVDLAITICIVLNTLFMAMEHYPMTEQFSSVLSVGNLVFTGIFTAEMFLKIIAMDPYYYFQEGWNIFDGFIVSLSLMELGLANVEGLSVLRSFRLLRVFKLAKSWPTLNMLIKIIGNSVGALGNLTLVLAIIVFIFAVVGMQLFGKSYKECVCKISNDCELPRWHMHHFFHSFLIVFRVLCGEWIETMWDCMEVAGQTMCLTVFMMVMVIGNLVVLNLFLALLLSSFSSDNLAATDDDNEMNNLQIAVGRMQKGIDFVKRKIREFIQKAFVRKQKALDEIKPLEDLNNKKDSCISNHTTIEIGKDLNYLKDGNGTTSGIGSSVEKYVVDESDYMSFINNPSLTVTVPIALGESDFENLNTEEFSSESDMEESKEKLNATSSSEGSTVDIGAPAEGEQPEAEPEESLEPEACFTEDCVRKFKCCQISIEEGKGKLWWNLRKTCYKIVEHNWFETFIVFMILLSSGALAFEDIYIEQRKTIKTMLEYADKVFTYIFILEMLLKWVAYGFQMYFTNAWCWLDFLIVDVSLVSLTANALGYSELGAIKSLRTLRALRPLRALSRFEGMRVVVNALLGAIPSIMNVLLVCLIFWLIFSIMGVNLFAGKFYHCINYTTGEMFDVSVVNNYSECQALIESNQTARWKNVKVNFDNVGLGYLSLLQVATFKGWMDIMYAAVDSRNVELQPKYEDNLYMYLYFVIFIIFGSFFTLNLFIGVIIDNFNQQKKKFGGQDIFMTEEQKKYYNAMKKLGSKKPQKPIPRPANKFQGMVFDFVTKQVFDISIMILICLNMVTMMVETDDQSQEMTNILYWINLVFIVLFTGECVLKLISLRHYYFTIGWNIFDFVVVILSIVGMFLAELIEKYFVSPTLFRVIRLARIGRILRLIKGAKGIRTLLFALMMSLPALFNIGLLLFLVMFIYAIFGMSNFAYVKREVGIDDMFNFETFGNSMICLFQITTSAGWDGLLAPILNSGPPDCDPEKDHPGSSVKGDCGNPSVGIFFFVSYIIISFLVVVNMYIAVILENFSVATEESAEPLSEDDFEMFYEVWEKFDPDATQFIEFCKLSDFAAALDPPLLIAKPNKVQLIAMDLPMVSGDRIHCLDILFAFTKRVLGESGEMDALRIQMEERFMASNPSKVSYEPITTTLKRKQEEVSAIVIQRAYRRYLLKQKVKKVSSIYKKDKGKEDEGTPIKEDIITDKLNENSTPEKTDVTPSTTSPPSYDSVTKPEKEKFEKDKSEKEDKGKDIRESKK

physchem = conditions: octanol/15 mM HEPES/135 mM NaCl, pH 7.4
Description: Partition coefficient (logD7.4) (octanol/15 mM HEPES/135 mM NaCl at pH 7.4)

[2] = Prevention of seizures induced by loud -high frequency sounds in the DBA/2 mouse after 20 mg/kg ip administration; type: functional; conditions: route intraperitoneal

SMILES | inhibition in vivo at 25 mg/kg (Mus musculus) [%] | IC50 (Glutamate NMDA receptor) [µM] | IC50 [1] [µM] | logD (physchem) | inhibition in vivo at 20 mg/kg [2] [%]
CCCCc1ccc(N=C(N)Nc2ccc(CCCC)cc2)cc1 | 82 | 3.32 | 0.13 | 4.1 | 
CCC(C)c1ccc(NC(=N)Nc2ccc(C(C)CC)cc2)cc1 (stereo not given) |  | 10.1 |  | 3.94 | 69
CCCCc1ccc(NC(N)=Nc2ccc(OCc3ccccc3)cc2)cc1 |  | 4.01 | 0.14 |  | 40
NC(=Nc1ccc(Oc2ccccc2)cc1)Nc1ccc(Oc2ccccc2)cc1 |  |  | 0.43 | 3.55 | 21
CC(C)(C)c1ccc(NC(=N)Nc2ccc(OCc3ccccc3)cc2)cc1 |  | 2.19 | 0.11 | 3.46 | 27
NC(=Nc1ccc(CCCCO)cc1)Nc1ccc(CCCCO)cc1 |  |  | 8.19 | 0.047 | 0
COc1ccc(/N=C(\N)Nc2ccc3c4c(cccc24)CC3)c2ccccc12 |  | 2.49 |  | 2.7 | 50
CC(C)(C)c1ccc(NC(=N)Nc2ccc(C(C)(C)C)cc2)cc1 |  | > 7.7 | 1.54 | 3.65 | 60
CCCCOc1ccc(NC(=N)Nc2ccc(CCCCO)cc2)cc1 |  |  | 1.78 | 1.72 | 11
NC(=Nc1ccc(-c2ccccc2)cc1)Nc1ccc(-c2ccccc2)cc1 |  |  | 0.85 | 3.13 | 
CCCCOc1ccc(N=C(N)Nc2ccc(OCCCC)cc2)cc1 |  | 3.48 | 0.19 | 3.52 | 52
CCCCCCc1ccc(N=C(N)Nc2ccc(CCCCCC)cc2)cc1 |  | 7.79 | 0.83 | 6.07 | 79
CCC(C)c1ccc(NC(N)=Nc2ccc3c4c(cccc24)CC3)cc1 (stereo not given) |  |  | 0.68 | 3.31 | 33
NC(=Nc1ccc(Sc2ccccc2)cc1)Nc1ccc(Sc2ccccc2)cc1 |  |  | 0.84 | 4.18 | 
CCc1ccc(NC(=N)Nc2ccc(CC)cc2)cc1 |  | 7.91 | 1.39 | 1.7 | 100
Cc1ccc(N=C(N)Nc2ccc(C)cc2)cc1 |  | 10.2 | 9.21 | 0.7 | 43
CC(C)c1ccc(NC(=N)Nc2ccc(C(C)C)cc2)cc1 |  | 17.9 | 0.46 | 2.72 | 85
Nc1nc2ccc(OC(F)(F)F)cc2s1 [RILUZOLE] |  |  |  |  | 92
CN1CCN(c2ncc(-c3cc(Cl)cc(Cl)c3Cl)c(N)n2)CC1 [SIPATRIGINE] |  |  |  | 3.39 | 66
